Experimental data published in US11415579B2, “Assay for measuring a rate of reaction between a target and a ligand candidate” (Imperial College Innovations Ltd., priority 2016, dated 2022).

How the values were obtained:
[1] = Kinetic thiol consumption assay with model thiol glutathione; assay type: physicochemical; design: Rate constant with glutathione (k(GSH)): unit not given here; details: for Rate constant with glutathione (k(GSH)): 500 μM ligand, 5 μM thiol, phosphate buffer pH 8; for Rate constant with Glutathione: Protein: Glutathione, cysteine position NA, in h-1
Summary of the method: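 GSH 5 μM, degassed phosphate buffer pH 8, TCEP beads 2% v/v; acrylamide added; RT, 1 h; fluorescence ex/em 380/470 nm; normalized to DMSO/thiol control; k from first-order exponential decay fit.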

[2] = molecular target: T1, human cyclin-dependent kinase 2 (Cdk2) (Homo sapiens, UniProt P24941); assay: Kinetic thiol consumption assay with wild type Cdk2 (C177); assay type: binding; design: key to Rate enhancement, Cdk2 WT: k(Cdk2) divided by k(model thiol); Rate constant with Cdk2 (k(Cdk2)): unit not given here; details: for Rate constant with Cdk2 (k(Cdk2)): 500 μM ligand, 5 μM thiol, phosphate buffer pH 8; for Rate enhancement, Cdk2 WT: no additional mutations; for Rate constant with Cdk2 WT: Protein: Cdk2, cysteine position WT, in h^-1; for k(Cdk2)/k(Cdk2_mut) rate enhancement: model thiol Cdk2[C177A, F80C, K278C]; for k(Cdk2)/k(GSH) rate enhancement: model thiol glutathione
T1 construct: poly-histidine; made in house; host or cells: E. coli
Summary of the method: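 His-tagged human Cdk2 from E. coli (sole surface cysteine C177) or a model thiol, each 5 μM in degassed phosphate buffer pH 8 with immobilized TCEP, reacted with acrylamides at room temperature. Fluorescence (ex 380/em 470) normalized to DMSO/thiol control over time; first-order rate constants, Cdk2 rate divided by model-thiol rate.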

Cdk2[C177A, F80C, K278C] = molecular target: T2, Cdk2[C177A, F80C, K278C] (Homo sapiens, UniProt P24941, C177A/F80C/K278C); assay: Kinetic thiol consumption assay with mutant Cdk2 as model thiol; assay type: binding; design: unit not given here; details: 500 μM ligand, 5 μM thiol, phosphate buffer pH 8
T2 construct: poly-histidine; made in house; host or cells: E. coli
Summary of the method: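 First-order rate constants were derived by exponential-decay fitting of DMSO/thiol-normalized fluorescence (380/470 nm) over time at room temperature. Thiol was 5 μM E. coli-expressed His-tagged Cdk2 mutant C177A/F80C/K278C in degassed pH 8 phosphate buffer containing 2% v/v TCEP beads.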

Cdk2(C177A, F80C) = molecular target: T3, Cdk2(C177A, F80C) (Homo sapiens, UniProt P24941, C177A/F80C); assay: Kinetic thiol consumption assay with Cdk2 mutant F80C, incl. kobs versus concentration (Kd, k2); assay type: binding; design: key to Rate enhancement, Cdk2 F80C: Cdk2 rate constant divided by model-thiol rate constant; details: additional mutation C177A; for Rate constant with Cdk2 F80C: Protein: Cdk2, cysteine position F80C, in h^-1
T3 construct: poly-histidine; made in house; host or cells: E. coli
Summary of the method: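 His-tagged Cdk2(C177A/F80C) from E. coli or model thiol, 5 μM in degassed phosphate buffer pH 8 with TCEP beads, reacted with acrylamide ligands; fluorescence (ex/em 380/470 nm) normalized to DMSO control and fitted to first-order decay for kobs. Kd and k2 obtained from hyperbolic fit of kobs versus ligand concentration.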

Cdk2(H71C) (C177A) = molecular target: T4, Cdk2(H71C) (C177A) (Homo sapiens, UniProt P24941, C177A/H71C); assay: Kinetic thiol consumption assay with Cdk2 mutant H71C; assay type: binding; design: key to Rate enhancement, Cdk2 H71C: rate constant with Cdk2 ÷ rate constant with model thiol (fold); details: additional mutation C177A; for Rate constant with Cdk2 H71C: Protein: Cdk2, cysteine position H71C, in h^-1
T4 construct: poly-histidine; made in house; host or cells: E. coli
Summary of the method: (§1)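 Read-out is fluorescence at 380/470 nm, taken after 1 h at room temperature and normalized to a DMSO/thiol-only control over time. Thiol (5 μM Cdk2 mutant or model thiol) was in degassed pH 8 phosphate buffer with 2% v/v TCEP beads. Acrylamide rate constants for Cdk2 were divided by those with model thiol.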

Cdk2(S276C) (C177A) = molecular target: T5, Cdk2(S276C) (C177A) (Homo sapiens, UniProt P24941, C177A/S276C); assay: Kinetic thiol consumption assay with Cdk2 mutant S276C; assay type: binding; design: key to Rate enhancement, Cdk2 S276C: rate constant with Cdk2 ÷ rate constant with model thiol (fold); details: additional mutation C177A; for Rate constant with Cdk2 S276C: Protein: Cdk2, cysteine position S276C, in h^-1
T5 construct: poly-histidine; made in house; host or cells: E. coli
Summary of the method: as §1

Cdk2(N272C) (C177A) = molecular target: T6, Cdk2(N272C) (C177A) (Homo sapiens, UniProt P24941, C177A/N272C); assay: Kinetic thiol consumption assay with Cdk2 mutant N272C; assay type: binding; design: key to Rate enhancement, Cdk2 N272: rate constant with Cdk2 ÷ rate constant with model thiol (fold); details: for Rate enhancement, Cdk2 N272: Cdk2 N272, additional mutation C177A; for Rate constant with Cdk2 N272C: Protein: Cdk2, cysteine position N272C, additional mutation C177A, in h^-1
T6 construct: poly-histidine; made in house; host or cells: E. coli
Summary of the method: as §1

Cdk2(T182C) (C177A) = molecular target: T7, Cdk2(T182C) (C177A) (Homo sapiens, UniProt P24941, C177A/T182C); assay: Kinetic thiol consumption assay with Cdk2 mutant T182C; assay type: binding; design: key to Rate enhancement, Cdk2 T182C: rate constant with Cdk2 ÷ rate constant with model thiol (fold); details: additional mutation C177A; for Rate constant with Cdk2 T182C: Protein: Cdk2, cysteine position T182C, in h^-1
T7 construct: poly-histidine; made in house; host or cells: E. coli
Summary of the method: as §1

Cdk2(R122C) (C177A) = molecular target: T8, Cdk2(R122C) (C177A) (Homo sapiens, UniProt P24941, C177A/R122C); assay: Kinetic thiol consumption assay with Cdk2 mutant R122C; assay type: binding; design: key to Rate enhancement, Cdk2 R122C: rate constant with Cdk2 ÷ rate constant with model thiol (fold); details: additional mutation C177A; for Rate constant with Cdk2 R122C: Protein: Cdk2, cysteine position R122C, in h-1
T8 construct: poly-histidine; made in house; host or cells: E. coli
Summary of the method: as §1

Cdk2(S181C) (C177A) = molecular target: T9, Cdk2(S181C) (C177A) (Homo sapiens, UniProt P24941, C177A/S181C); assay: Kinetic thiol consumption assay with Cdk2 mutant S181C; assay type: binding; design: key to Rate enhancement, Cdk2 S181C: rate constant with Cdk2 ÷ rate constant with model thiol (fold); details: additional mutation C177A; for Rate constant with Cdk2 S181C: Protein: Cdk2, cysteine position S181C, in h^-1
T9 construct: poly-histidine; made in house; host or cells: E. coli
Summary of the method: as §1

Structure (SMILES) | Rate constant with glutathione (k(GSH)) [1] | Rate constant with Glutathione [1] | Rate constant with Cdk2 (k(Cdk2)) [2] | Rate enhancement, Cdk2 WT [2] | Rate constant with Cdk2 WT [2] | k(Cdk2)/k(Cdk2_mut) rate enhancement [2] | k(Cdk2)/k(GSH) rate enhancement [2] | Rate constant with Cdk2[C177A, F80C, K278C] (k(Cdk2_mut)) (Cdk2[C177A, F80C, K278C]) | Rate enhancement, Cdk2 F80C (Cdk2(C177A, F80C)) | Rate enhancement, Cdk2 H71C (Cdk2(H71C) (C177A)) | Rate enhancement, Cdk2 S276C (Cdk2(S276C) (C177A)) | Rate constant with Cdk2 S276C (Cdk2(S276C) (C177A)) | Rate enhancement, Cdk2 N272 (Cdk2(N272C) (C177A)) | Rate constant with Cdk2 N272C (Cdk2(N272C) (C177A)) | Rate enhancement, Cdk2 T182C (Cdk2(T182C) (C177A)) | Rate constant with Cdk2 T182C (Cdk2(T182C) (C177A)) | Rate enhancement, Cdk2 R122C (Cdk2(R122C) (C177A)) | Rate constant with Cdk2 R122C (Cdk2(R122C) (C177A)) | Rate enhancement, Cdk2 S181C (Cdk2(S181C) (C177A)) | Rate constant with Cdk2 S181C (Cdk2(S181C) (C177A)) | other results
C=CC(=O)N1CCCCCC1c1cccs1 (centres unmarked) [EL-1063] | 0.00353 | 0.003394 | 0.00274 | 0.8082 | 0.002743 | 0.5955 | 0.7775 | 0.00461 | 2.756 | 1.092 | 0.5613 | 0.001905 | 1.172 | 0.003977 | 9.081 | 0.03082 | 0.7319 | 0.002484 | 1.561 | 0.005297 | Rate constant with Cdk2 F80C (Cdk2(C177A, F80C)): 0.009353; Rate constant with Cdk2 H71C (Cdk2(H71C) (C177A)): 0.003705
C=CC(=O)N1CCCC1c1cnc2ccccc2c1 (centres unmarked) [EL-1064] | 0.01205 | 0.01195 | 0.00589 | 0.4929 | 0.00589 | 0.7691 | 0.489 | 0.00766 | 1.645 | 0.8653 | 1.074 | 0.01284 | 1.056 | 0.01262 | 1.7 | 0.02031 | 0.5786 | 0.006914 | 1.469 | 0.01756 | Rate constant with Cdk2 F80C (Cdk2(C177A, F80C)): 0.01966; Rate constant with Cdk2 H71C (Cdk2(H71C) (C177A)): 0.01034
C=CC(=O)NC1C[C@@H](C(=C)C)CC=C1C (some centres unmarked) [EL-1074] | 0.00876 | 0.01025 | 0.003 | 0.5934 | 0.006082 | 0.8773 | 0.3421 | 0.00342 | 0.4555 | 0.248 | 0.4274 | 0.004381 | 0.6473 | 0.006635 | 1.829 | 0.01875 | 0.322 | 0.0033 | 0.214 | 0.002194 | Rate constant with Cdk2 F80C (Cdk2(C177A, F80C)): 0.004669; Rate constant with Cdk2 H71C (Cdk2(H71C) (C177A)): 0.002542
C=CC(=O)NCCc1c(-c2ccccn2)[nH]c2ccccc12 [EL-1083] | 0.00618 | 0.01092 | 0.00098 | 0.08945 | 0.0009768 | 0.3446 | 0.1583 | 0.00284 | 0 | 0 | 0.5044 | 0.005508 | 0.157 | 0.001714 | 0.9139 | 0.00998 | 0.05484 | 0.0005988 | 0.1531 | 0.001672 | –
